Columns and labels:
Glucocorticoid receptor = molecular target: T1, Glucocorticoid receptor (Homo sapiens, UniProt P04150)
T1 sequence (P04150 whole entry): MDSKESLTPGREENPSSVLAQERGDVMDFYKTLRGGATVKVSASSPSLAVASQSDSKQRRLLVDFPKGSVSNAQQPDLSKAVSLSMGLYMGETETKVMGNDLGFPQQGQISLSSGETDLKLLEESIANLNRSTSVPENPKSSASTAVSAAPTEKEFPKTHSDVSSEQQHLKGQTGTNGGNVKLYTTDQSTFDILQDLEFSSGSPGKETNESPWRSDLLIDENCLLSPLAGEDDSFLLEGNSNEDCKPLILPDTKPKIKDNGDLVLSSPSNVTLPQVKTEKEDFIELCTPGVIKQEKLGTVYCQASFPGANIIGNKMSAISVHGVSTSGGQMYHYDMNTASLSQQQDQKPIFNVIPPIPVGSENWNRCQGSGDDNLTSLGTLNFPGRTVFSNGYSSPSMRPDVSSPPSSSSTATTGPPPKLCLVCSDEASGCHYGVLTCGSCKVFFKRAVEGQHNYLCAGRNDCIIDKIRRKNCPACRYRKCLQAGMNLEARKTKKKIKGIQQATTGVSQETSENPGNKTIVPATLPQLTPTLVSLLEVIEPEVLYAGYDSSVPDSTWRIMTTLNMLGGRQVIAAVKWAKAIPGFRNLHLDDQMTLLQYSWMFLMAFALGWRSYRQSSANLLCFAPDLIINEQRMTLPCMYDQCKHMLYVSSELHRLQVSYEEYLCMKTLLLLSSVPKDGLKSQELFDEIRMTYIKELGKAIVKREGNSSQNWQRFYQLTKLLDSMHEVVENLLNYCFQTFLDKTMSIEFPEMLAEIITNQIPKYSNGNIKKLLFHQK

Estrogen receptor = molecular target: T2, Estrogen receptor (Homo sapiens, UniProt P03372)
T2 sequence (P03372 whole entry): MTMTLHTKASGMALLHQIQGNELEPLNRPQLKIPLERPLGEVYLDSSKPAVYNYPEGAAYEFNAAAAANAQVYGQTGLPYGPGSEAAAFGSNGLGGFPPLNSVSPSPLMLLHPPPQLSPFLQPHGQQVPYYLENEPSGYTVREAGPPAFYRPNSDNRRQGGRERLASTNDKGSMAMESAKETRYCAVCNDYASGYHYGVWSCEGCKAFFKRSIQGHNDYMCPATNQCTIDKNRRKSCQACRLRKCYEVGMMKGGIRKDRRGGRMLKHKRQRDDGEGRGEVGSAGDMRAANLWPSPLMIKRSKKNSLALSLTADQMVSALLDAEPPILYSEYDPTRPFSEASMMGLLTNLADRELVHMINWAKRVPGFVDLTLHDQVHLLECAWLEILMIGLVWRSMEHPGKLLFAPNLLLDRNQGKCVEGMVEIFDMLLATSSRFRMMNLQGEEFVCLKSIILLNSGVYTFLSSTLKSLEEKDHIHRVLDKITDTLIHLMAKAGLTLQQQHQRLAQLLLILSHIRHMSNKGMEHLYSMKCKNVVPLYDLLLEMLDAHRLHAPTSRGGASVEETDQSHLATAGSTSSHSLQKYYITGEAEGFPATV

[1] = molecular target: cGMP-inhibited 3',5'-cyclic phosphodiesterase 3A (Homo sapiens, UniProt Q14432); assay type: functional
[2] = molecular target: T3, Alpha-1A adrenergic receptor (Homo sapiens, UniProt P35348); assay type: functional, cell-based
T3 sequence (P35348 whole entry): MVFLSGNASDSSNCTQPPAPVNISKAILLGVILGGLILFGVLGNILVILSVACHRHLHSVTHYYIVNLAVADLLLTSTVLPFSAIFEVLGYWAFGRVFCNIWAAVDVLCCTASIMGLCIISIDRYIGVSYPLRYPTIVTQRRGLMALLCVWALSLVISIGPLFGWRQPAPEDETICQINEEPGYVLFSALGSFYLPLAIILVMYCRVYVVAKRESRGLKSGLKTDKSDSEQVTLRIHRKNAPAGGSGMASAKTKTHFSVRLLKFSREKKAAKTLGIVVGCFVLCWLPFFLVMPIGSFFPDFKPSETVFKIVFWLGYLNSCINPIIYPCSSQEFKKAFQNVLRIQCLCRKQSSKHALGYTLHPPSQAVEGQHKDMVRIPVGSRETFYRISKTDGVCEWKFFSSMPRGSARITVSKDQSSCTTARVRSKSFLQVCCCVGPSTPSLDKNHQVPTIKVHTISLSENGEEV

Cannabinoid receptor 1 = Cannabinoid receptor 1 (Homo sapiens, UniProt P21554); assay type: functional, cell-based
[3] = molecular target: 5-hydroxytryptamine receptor 2B (Homo sapiens, UniProt P41595); assay type: functional, cell-based
[4] = molecular target: Muscarinic acetylcholine receptor M3 (Homo sapiens, UniProt P20309)
Adenosine receptor A3 = molecular target: T4, Adenosine receptor A3 (Homo sapiens, UniProt P0DMS8)
T4 sequence (P0DMS8 whole entry): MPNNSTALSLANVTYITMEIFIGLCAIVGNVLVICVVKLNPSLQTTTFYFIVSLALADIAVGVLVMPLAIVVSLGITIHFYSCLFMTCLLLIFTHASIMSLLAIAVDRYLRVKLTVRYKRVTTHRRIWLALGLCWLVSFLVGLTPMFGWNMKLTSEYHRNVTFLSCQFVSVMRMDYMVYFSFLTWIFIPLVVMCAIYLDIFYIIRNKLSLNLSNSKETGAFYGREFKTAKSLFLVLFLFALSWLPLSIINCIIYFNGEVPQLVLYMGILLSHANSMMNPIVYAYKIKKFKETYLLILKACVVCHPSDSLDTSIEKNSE

[5] = molecular target: T5, Neuropeptide Y receptor type 1 (Homo sapiens, UniProt P25929)
T5 sequence (P25929 whole entry): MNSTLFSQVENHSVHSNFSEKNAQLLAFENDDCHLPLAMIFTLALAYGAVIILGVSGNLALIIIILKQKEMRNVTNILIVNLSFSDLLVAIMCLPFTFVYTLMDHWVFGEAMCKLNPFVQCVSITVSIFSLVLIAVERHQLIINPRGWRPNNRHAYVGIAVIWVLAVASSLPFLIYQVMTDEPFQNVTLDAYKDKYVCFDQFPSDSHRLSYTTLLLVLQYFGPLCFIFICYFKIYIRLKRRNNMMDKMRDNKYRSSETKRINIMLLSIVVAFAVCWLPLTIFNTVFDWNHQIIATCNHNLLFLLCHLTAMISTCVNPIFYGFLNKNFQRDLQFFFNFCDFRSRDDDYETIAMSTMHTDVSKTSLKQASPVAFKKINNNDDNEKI
Also: assay procedure not described here.

Chain of Cannabinoid receptor 1 (P21554 whole entry): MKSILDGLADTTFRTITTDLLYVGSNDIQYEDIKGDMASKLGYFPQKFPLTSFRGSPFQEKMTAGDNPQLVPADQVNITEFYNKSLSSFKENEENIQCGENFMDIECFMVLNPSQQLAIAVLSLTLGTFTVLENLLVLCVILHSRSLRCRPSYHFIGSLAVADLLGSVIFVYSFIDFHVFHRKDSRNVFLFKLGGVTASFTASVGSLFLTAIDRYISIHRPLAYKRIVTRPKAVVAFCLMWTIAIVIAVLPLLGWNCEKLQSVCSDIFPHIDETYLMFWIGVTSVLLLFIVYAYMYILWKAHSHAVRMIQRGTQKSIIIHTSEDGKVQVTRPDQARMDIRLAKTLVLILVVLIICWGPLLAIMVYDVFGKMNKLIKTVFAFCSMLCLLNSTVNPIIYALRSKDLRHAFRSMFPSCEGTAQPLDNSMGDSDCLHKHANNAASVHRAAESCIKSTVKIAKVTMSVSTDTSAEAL
Chain of 5-hydroxytryptamine receptor 2B (P41595 whole entry): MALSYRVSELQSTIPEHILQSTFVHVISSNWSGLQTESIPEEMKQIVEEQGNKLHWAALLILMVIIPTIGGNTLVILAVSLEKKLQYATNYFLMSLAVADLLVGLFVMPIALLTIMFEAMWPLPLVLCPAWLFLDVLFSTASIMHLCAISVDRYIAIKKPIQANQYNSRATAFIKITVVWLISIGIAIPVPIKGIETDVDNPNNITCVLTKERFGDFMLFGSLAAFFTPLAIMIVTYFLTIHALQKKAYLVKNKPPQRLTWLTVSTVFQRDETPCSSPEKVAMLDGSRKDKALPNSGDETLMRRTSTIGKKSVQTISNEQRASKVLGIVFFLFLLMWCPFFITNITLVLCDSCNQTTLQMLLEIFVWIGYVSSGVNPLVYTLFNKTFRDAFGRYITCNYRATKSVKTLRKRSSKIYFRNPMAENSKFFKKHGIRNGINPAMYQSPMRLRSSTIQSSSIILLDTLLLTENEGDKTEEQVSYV
Chain of cGMP-inhibited 3',5'-cyclic phosphodiesterase 3A (Q14432 whole entry): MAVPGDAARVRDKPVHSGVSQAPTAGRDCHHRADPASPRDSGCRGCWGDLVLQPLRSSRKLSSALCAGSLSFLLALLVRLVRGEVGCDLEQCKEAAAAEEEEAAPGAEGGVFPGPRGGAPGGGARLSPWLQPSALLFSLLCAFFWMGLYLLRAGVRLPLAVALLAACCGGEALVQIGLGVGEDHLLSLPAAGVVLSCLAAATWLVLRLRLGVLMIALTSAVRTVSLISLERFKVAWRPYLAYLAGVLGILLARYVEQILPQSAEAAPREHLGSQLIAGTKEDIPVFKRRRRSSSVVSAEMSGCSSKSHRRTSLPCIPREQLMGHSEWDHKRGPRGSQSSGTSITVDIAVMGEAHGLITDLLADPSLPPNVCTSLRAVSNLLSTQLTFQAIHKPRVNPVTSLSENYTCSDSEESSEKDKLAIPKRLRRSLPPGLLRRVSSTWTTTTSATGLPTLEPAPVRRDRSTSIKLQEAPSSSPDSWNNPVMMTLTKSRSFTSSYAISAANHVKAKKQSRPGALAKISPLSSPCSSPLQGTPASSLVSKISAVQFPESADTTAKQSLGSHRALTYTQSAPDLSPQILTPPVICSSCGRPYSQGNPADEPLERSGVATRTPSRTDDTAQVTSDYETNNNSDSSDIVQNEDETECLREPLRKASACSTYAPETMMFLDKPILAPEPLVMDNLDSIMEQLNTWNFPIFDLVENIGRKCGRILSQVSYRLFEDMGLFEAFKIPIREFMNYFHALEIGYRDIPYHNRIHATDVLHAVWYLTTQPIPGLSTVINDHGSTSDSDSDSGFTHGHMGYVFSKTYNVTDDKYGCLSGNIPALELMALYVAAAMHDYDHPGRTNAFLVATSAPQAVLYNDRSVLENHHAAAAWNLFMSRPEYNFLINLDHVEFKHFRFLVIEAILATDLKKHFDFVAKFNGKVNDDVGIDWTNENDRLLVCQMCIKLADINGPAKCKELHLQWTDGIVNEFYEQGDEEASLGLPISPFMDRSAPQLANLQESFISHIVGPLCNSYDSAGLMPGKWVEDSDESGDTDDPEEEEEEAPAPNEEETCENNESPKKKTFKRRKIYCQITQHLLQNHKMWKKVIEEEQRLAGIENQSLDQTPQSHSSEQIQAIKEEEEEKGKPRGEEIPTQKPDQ
Chain of Muscarinic acetylcholine receptor M3 (P20309 whole entry): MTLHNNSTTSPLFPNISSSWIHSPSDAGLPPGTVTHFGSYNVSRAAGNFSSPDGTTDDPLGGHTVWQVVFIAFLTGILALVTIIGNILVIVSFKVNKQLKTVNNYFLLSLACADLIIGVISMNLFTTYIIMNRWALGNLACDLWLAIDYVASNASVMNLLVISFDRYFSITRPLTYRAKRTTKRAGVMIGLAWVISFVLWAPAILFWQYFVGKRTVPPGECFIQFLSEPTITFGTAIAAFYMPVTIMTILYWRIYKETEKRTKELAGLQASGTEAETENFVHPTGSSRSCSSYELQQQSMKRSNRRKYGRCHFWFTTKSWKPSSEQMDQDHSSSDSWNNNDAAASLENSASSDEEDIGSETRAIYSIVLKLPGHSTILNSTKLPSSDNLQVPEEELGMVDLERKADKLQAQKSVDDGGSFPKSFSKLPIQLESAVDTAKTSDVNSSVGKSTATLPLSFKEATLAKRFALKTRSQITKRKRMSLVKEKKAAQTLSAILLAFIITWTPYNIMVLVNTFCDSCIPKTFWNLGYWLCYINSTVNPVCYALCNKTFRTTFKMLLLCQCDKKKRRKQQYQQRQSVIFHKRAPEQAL

Compound | AC50 (Glucocorticoid receptor) [µM] | AC50 (Estrogen receptor) [µM] | AC50 [1] [µM] | AC50 [2] [µM] | AC50 (Cannabinoid receptor 1) [µM] | AC50 [3] [µM] | AC50 [4] [µM] | AC50 (Adenosine receptor A3) [µM] | AC50 [5] [µM]
C[N+]1(C)CCC(OC(=O)C(O)(c2ccccc2)C2CCCC2)C1 (centres undefined) [GLYCOPYRRONIUM BROMIDE] | > 30 | > 30 | > 30 | – | – | – | – | – | –
O=C(Cc1ccc(-c2ccccc2)cc1)Nc1ccccn1 [DIFENPIRAMIDE] | – | > 30 | > 30 | > 30 | > 30 | > 30 | > 30 | – | –
Cc1cccc(Nc2ccccc2C(=O)O)c1C [MEFENAMIC ACID] | > 10 | – | > 30 | – | – | > 30 | – | > 30 | > 10
Cc1cn([C@H]2C=C[C@@H](CO)O2)c(=O)[nH]c1=O [STAVUDINE] | – | – | > 30 | > 30 | > 30 | > 30 | – | > 30 | > 30
CC[N+]1(C)[C@@H]2CC(OC(=O)[C@H](CO)c3ccccc3)C[C@H]1[C@@H]1O[C@@H]12 (some centres undefined) [OXITROPIUM] | – | > 30 | > 30 | – | – | > 30 | – | > 30 | –
CCC1=C(C)CN(C(=O)NCCc2ccc(S(=O)(=O)NC(=O)N[C@H]3CC[C@H](C)CC3)cc2)C1=O [GLIMEPIRIDE] | – | > 30 | > 30 | – | – | > 30 | – | > 30 | –
C=CCc1ccccc1OCC(O)CNC(C)C (centres undefined) [ALPRENOLOL] | – | – | > 0.3 | 7.53 | > 30 | > 0.3 | > 30 | > 0.3 | > 30
CS(=O)(=O)c1ccc(C2=C(c3ccccc3)C(=O)OC2)cc1 [ROFECOXIB] | > 30 | – | > 30 | > 30 | > 30 | > 30 | – | 18.5 | > 30
O=C(CCNNC(=O)c1ccncc1)NCc1ccccc1 [NIALAMIDE] | – | > 30 | > 30 | – | – | > 30 | – | > 30 | –
CCC(=O)NCC[C@@H]1CCc2ccc3c(c21)CCO3 [RAMELTEON] | – | > 30 | > 30 | – | – | > 30 | – | > 30 | –
OCCN1C[C@H](O)[C@@H](O)[C@H](O)[C@H]1CO [MIGLITOL] | – | > 30 | > 30 | – | – | > 30 | – | > 30 | –
C[N+](C)(C)CCO [CHOLINE] | – | > 30 | > 30 | – | – | > 30 | – | > 30 | –
COc1cc(NC(C)CCCN)c2ncccc2c1 (centres undefined) [PRIMAQUINE] | – | > 30 | 22.5 | – | – | – | – | 14.7 | > 30
CC[C@H]1OC(=O)[C@H](C)[C@@H](O[C@H]2C[C@@](C)(OC)[C@@H](O)[C@H](C)O2)[C@H](C)[C@@H](O[C@@H]2O[C@H](C)C[C@H](N(C)C)[C@H]2O)[C@](C)(O)C[C@@H](C)CN(C)[C@H](C)[C@@H](O)[C@]1(C)O [AZITHROMYCIN] | – | > 30 | > 30 | > 30 | > 30 | > 30 | – | – | > 30
CCc1oc2ccccc2c1C(=O)c1cc(I)c(O)c(I)c1 [BENZIODARONE] | – | > 30 | > 30 | – | – | > 30 | – | – | –
Oc1c(Cl)cc(Cl)c2cccnc12 [CHLOROXINE] | – | > 30 | > 30 | – | – | > 30 | – | > 30 | –
CN(C)[C@@H](c1cccc(O)c1)[C@H]1CCCC[C@H]1O [CIRAMADOL] | – | > 30 | > 30 | – | – | > 30 | – | > 30 | –
NCC(CC(=O)O)c1ccc(Cl)cc1 (centres undefined) [BACLOFEN] | > 30 | – | > 30 | > 30 | > 30 | > 30 | – | > 30 | > 30
CC(=O)N[C@@H]1[C@@H](O)[C@H](O)[C@@H](CO)O[C@H]1O [N-ACETYLGLUCOSAMINE] | – | > 30 | > 30 | – | – | > 30 | – | > 30 | –
CN(C)S(=O)(=O)c1ccc2c(c1)N(CCCN1CCC(CCO)CC1)c1ccccc1S2 [PIPOTIAZINE] | – | > 30 | > 30 | – | – | > 30 | – | > 30 | –
N[C@H](C(=O)O)[C@H](O)c1ccc(O)c(O)c1 [DROXIDOPA] | – | > 30 | > 30 | – | – | > 30 | – | > 30 | –
CC(C)C[C@H]1C(=O)N2CCC[C@H]2[C@]2(O)O[C@](NC(=O)[C@@H]3C=C4c5cccc6[nH]c(Br)c(c56)C[C@H]4N(C)C3)(C(C)C)C(=O)N12 [BROMOCRIPTINE] | > 30 | – | > 30 | – | > 30 | > 30 | – | 1.92 | > 30
CCCCCCOc1nsnc1C1=CCCN(C)C1 [XANOMELINE] | – | > 30 | > 30 | – | – | > 30 | – | > 30 | –
O=C(O)c1cc(O)ccc1O [GENTISIC ACID] | – | > 30 | > 30 | – | – | > 30 | – | > 30 | –
CC(=O)Nc1ccc(O)cc1 [ACETAMINOPHEN] | – | – | > 30 | > 30 | > 30 | > 30 | – | > 30 | –
Cc1cc(C#N)cc(C)c1Oc1nc(Nc2ccc(C#N)cc2)nc(N)c1Br [ETRAVIRINE] | – | 6.28 | > 30 | – | – | > 30 | – | – | –
C[C@]12CC[C@@H]3c4ccc(O)cc4CC[C@H]3[C@@H]1C[C@@H](O)[C@@H]2O [ESTRIOL] | – | – | > 30 | – | – | > 30 | – | > 30 | –
COC(c1ccccc1)(c1ccccc1)[C@H](Oc1nc(C)cc(C)n1)C(=O)O [AMBRISENTAN] | – | – | > 30 | – | – | > 30 | – | > 30 | –
CN(C)CCn1nnnc1SCC1=C(C(=O)O)N2C(=O)[C@@H](NC(=O)Cc3csc(N)n3)[C@H]2SC1 [CEFOTIAM] | – | – | > 30 | – | – | > 30 | – | > 30 | –
